From patent US20130267571A1, “TERPENOID ANALOGUES AND USES THEREOF FOR TREATING NEUROLOGICAL CONDITIONS” (NeuroQuest Inc., priority 2010, published 2013) come the findings set out here.

A word on the IC50: it is the point on the concentration scale where inhibition reaches its midpoint. For orientation: EC50 means the concentration needed to bring the measured effect to its halfway point. Low values mean higher potency in that assay, high ones lower potency in that assay.

Assay [1] concerns voltage-gated Na+ channels. The experiment in a line: Sodium (Na+) channel analysis in rat DRG neurons using whole cell patch-clamp. The class given is cell-based. The conditions noted are these: Na+ currents in isolated rat DRG neurons, 3 min in presence of drug, read-out: IC50 range. As to the method:
Isolated DRG neurons were suspended in primary neuron basal media and placed on glass coverslips for incubation in humidified atmosphere of 5% CO2 at 37° C. Coverslips carrying cells was transferred to the bath of an inverted microscope (Zeiss), continuously perfused with oxygenated artificial cerebro-spinal fluid (ACSF) containing (in mM) 124 NaCl, 2.5 KCl, 2 CaCl2, 1 MgSO4, 25 NaHCO3, 1 NaH2PO4, and 10 glucose, at a rate of 2-3 ml/min. Recording of whole-cell membrane currents were made at room temperature. Recording pipette (4-6 MS2) was filled with internal solution containing (in mM) 145 K-gluconate, 5 NaCl, 1 MgCl2, 0.2 EGTA, 10 HEPES, 2 Mg-ATP, 0.1 Na-GTP, and 10 phosphocreatine. To isolate Na^+ currents, DRG neurons were superfused with ACSF containing tetraethylammonium chloride (TEA) 5 mM, cesium chloride (CsCl) 100 μM and cadmium chloride (CdCl) 1 mM, to block potassium and calcium currents. NQ compounds were freshly dissolved in ASCF containing TEA, CsCl and CdCl, prior application via the bath.
For recording Na^+ currents, cells were held at −60 mV before applying a conditioning hyperpolarizing step (50 ms) to −90 mv to reactivate the voltage-gated Na^+ channels. The conditioning pulse was followed by depolarizing (150 ms) test pulses to 50 mV in 10 mV increments. Na^+ currents were recorded in absence, after 3 min in presence of the drugs and after a recovery time of 3 min.
(In general: Patch clamp records ionic current or voltage across a cell membrane.)

The test system of a further assay is zebrafish embryos. The experiment in a line: Zebrafish response (anaesthesia) assay, touch response/swim behaviour. The format is in vivo. The conditions noted are these: Danio rerio, 1.5 h; complete anaesthesia (scale 1) in 50% of AB wild type embryos (54 hpf), 90 min at 28° C. An excerpt:
Briefly, the ZEA assay involves applying essential oils, fractions or individual compounds to developmentally staged zebrafish embryos followed by monitoring of embryonic touch response/swim behaviour and evaluation of the dose response relationship for each substance. Using a four point scale to describe the embryonic behaviours (Table 4), initial analysis focused on monitoring and recording these changes and evaluating the level of bioactivity. The effective concentration to generate complete anaesthesia in 50% of the embryos (EC50), were evaluated as follows:
Compounds are tested on developmentally staged AB “wild type” zebrafish embryos (54 hpf+/−2 hpf) at concentrations ranging between 10 and 400 μM.
Each compound is diluted in a 95% ethanol or DMSO carrier to create a working stock solution from which appropriate dilutions are made in standard embryo E3 media.
1000 μl of each concentration or appropriate carrier control are added to 10 wild type AB embryos in a single well of a 24 well plate, in duplicate.
The embryos are incubated for 90 min at 28° C. (optimal temperature for embryonic growth) in the diluted compound.
A four point scale (Table 4) is used to evaluate the touch response and swim behaviour for each embryo in all wells.
The effectiveness of the compound will be based on its ability to generate complete anaesthesia (scale: 1) in 50% of the embryos at a given concentration (EC50).
The EC50 values are calculated using GraphPad Prism® software to analyze the log (dose) response curves.

In the next assay the target is TRPV1 (Homo sapiens, UniProt Q8NER1). The experiment in a line: TRPV1 assay, calcium imaging. The format is cell-based. As to the method:
Briefly, cells are seeded into poly-L-lysine-coated, glass-bottom, 24-well plates (1×10^5 cells/well) and incubated overnight under standard culture conditions to achieve the desired confluency. Culture media is removed and cells washed twice with HBS prior to incubation for 15 to 60 min at 37° C. with a labelling mixture comprised of Fura-2-AM and pluronic acid in HBS. Data collection occurs over an eight minute period and follows the same general sequence. Following loading, cells are stimulated by addition of 1 μM of capsaicin agonist for 2 min, after which a concentration series of the test sample (e.g., (0.5, 5, 10, 50 μg/ml) is added and imaging continued for an additional 5 min. Capsazepine (20 μM) serves as a known reference antagonist, while cells that are mock-treated or receive vehicle (e.g., DMSO) alone serve as negative controls. For imaging, plates are placed on the stage of an inverted epifluorescence microscope (e.g. Axiovert 200, Zeiss) equipped with a CCD digital camera (e.g., Axiocam MRm, Zeiss). For each well of the plate, a sequence of image pairs (excitation at 340 nm and 380 nm) are collected to capture intracellular calcium flux. Image sequences are analyzed in Image) (NIH) and average pixel intensities calculated for six representative cells in each test condition to achieve mean fluorescence.

Where [2] appears, read: Ca2+ imaging (Fura-2-AM) after stimulation with 1 μM capsaicin.

Chain of TRPV1 (Q8NER1 whole entry, species assumed): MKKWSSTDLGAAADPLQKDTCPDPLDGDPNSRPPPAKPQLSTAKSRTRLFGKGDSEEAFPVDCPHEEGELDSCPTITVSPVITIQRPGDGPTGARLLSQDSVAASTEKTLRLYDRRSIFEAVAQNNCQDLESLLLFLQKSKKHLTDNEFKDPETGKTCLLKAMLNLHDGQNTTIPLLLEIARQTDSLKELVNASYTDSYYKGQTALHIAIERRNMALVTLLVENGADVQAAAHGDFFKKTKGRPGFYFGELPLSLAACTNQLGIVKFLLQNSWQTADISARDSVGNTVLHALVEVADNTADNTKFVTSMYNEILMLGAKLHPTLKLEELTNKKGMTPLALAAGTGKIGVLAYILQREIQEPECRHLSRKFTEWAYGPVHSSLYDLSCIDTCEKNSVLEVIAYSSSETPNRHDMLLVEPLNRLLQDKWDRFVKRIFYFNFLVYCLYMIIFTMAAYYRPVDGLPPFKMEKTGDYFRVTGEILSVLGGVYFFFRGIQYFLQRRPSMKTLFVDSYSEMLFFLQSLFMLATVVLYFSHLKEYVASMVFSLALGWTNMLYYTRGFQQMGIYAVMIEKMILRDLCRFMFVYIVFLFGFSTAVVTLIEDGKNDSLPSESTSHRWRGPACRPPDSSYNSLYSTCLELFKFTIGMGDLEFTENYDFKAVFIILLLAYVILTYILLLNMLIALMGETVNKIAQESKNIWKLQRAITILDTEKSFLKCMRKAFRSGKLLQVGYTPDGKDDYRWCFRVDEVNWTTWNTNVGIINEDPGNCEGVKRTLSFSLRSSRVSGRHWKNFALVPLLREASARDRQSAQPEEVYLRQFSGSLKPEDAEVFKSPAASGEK

Take `CNC(=O)C=C(C)CCC=C(C)C` [NQ 2980, N,3,7-trimethylocta-2,6-dienamide]: the results for the IC50 (in assay [1]; at TRPV1 (setting [2])) were 100 to 1000 µM and above 552 µM, respectively. Also, the concentration giving a half-maximal response (EC50) with zebrafish embryos was 187 µM.

As for `CC(C)=CCC/C(C)=C/C=O` [NQ 2983, (E)-3,7-dimethylocta-2,6-dienal], the IC50 is 1000 to 5000 µM in assay [1]; 493 to 657 µM at TRPV1 (setting [2]); 493 µM on TRPV1 (FIG. 2, Ca2+ imaging in HEK-TRPV cells). A half-maximal response in the assay with zebrafish embryos (EC50) required 113 µM.
